Test: Binding affinity was measured by its ability to displace [3H]CCK-8S from CCK-B receptor in guinea pig brain
Compound `CC(C)CCN1C(=O)C(NC(=O)Nc2ccccc2)C(=O)N(c2ccccc2)c2cc(F)ccc21` (stereo not given) has a Ki of 224 nM.
`CC(C)CCN1C(=O)C(NC(=O)Nc2ccccc2)C(=O)N(c2ccccc2)c2cc(Cl)ccc21` (stereo not given) showed a Ki of 955 nM.
In the case of `CC(C)CCN1C(=O)C(NC(=O)Nc2ccccc2)C(=O)N(c2ccccc2)c2ccc(F)cc21` (stereo not given), the Ki is reported as less than 1000 nM.
For `CC(C)CCN1C(=O)C(NC(=O)Nc2ccccc2)C(=O)N(c2ccccc2)c2cc(Cl)c(Cl)cc21` (stereo not given), the Ki was 1580 nM.
`CC(C)CCN1C(=O)C(NC(=O)Nc2ccccc2)C(=O)N(c2ccccc2)c2ccc(Cl)cc21` (stereo not given) gave a Ki of 955 nM.
